Experimental data as given in patent US20090054368A1, “Substituted gemini surfactant compounds” (University of Saskatchewan, priority 2007, published 2009).
“Also recorded” adds a separate entry of the source.

Experiments:
[1] = Small angle X-ray scattering (SAXS) of plasmid DNA-gemini surfactant-DOPE complexes; type: physicochemical; details: plasmid DNA-gemini surfactant-DOPE complexes
Experimental: SAXS measurements were carried out at beamline X21 at the National Synchrotron Light Source at Brookhaven National Laboratory. Beamline X21 is based on a wiggler source, with a helium gas-cooled Si(111) monochromator selecting the photon energy. The X-ray beam is focused by a toroidal mirror into the experimental station. Three pairs of precision slits, positioned at 4 m, 1 m, and 5 cm upstream of the sample, define the beam. The scattering pattern is recorded using a 13 cm Mar CCD detector (Mar USA, Evanston, Ill.) located 1.26 m (calibrated with the scattering pattern of silver behenate) downstream of the sample. The measurements were performed with 12 KeV x-rays and the data covered a q-range from 0.008 Å^−1 to 0.375 Å^−1. All beam paths are under vacuum, except at the sample position, where the sample is in air, and kapton windows terminate the vacuum beam paths. Samples were loaded into 1.5 mm capillaries (Charles Supper #15-BG, Natick Mass.) and data recorded at room temperature. All spectra were processed to remove background contributions by subtracting the scattering profile obtained for a water-filled capillary. Peak fitting was carried out using the open-sources software package “fityk” (available at http://www.unipress.waw.pl/fityk/; last accessed on Jul. 5, 2007) using multiple Gaussian functions.
Solutions for SAXS analysis were prepared by addition of appropriate amounts of stock surfactant, DNA, and DOPE solutions, followed by sonication (to ensure complete mixing) where appropriate. The pGTmCMV.IFN-GFP plasmid DNA was used in the SAXS studies. The final concentrations of DNA and DOPE were 0.075 mM (50 μg/mL) and 1.00 mM (0.75 mg/mL), respectively. The concentration of gemini surfactant was adjusted as needed to obtain the desired 1:10 DNA:surfactant charge ratio. Preliminary x-ray scattering studies indicated these concentrations to be too dilute to give good scattering signals; as a result, the samples were concentrated 5× by evaporation.

cultured cells = assay: Viability of cells following transfection; type: cell-based; details: for cell viability / toxicity (in words): after transfection with plasmid DNA-gemini surfactant-DOPE
Experimental: Ideal transfection reagents are minimally toxic and/or disruptive to cells. Accordingly, the N-substituted surfactants were tested for toxicity in cultured cells. The viability of cells following transfection with either plasmid DNA-gemini surfactant-DOPE or Lipofectamine Plus are shown in FIG. 3. The aza-substituted surfactants 12-5N-12, 12-8N-12, and 12-7N-12 had similar toxicity compared to the Lipofectamine Plus reagent, with cell viability around 80% of the controls (i.e., no treatment or plasmid DNA alone; p>0.05).

[2] = tested on: COS-7 African Green monkey kidney fibroblast cells; assay: Transfection assay (luciferase production after transfection with plasmid DNA-gemini surfactant complexes); type: cell-based; details: PG complexes, complexed with DNA in the absence of helper lipid (DOPE)
[3] = previous work [11]; cited from earlier work
[4] = Average membrane charge density calculation for plasmid DNA-gemini surfactant-DOPE nanoparticles; type: physicochemical; details: calculated from head group areas
[5] = tested on: COS-7 African Green monkey kidney fibroblast cells; assay: Transfection assay (luciferase production after transfection with plasmid DNA-gemini surfactant complexes); type: cell-based
Experimental: COS-7 African Green monkey kidney fibroblast cells (ATCC CRL1651) were prepared for transfection in antibiotic and 10% fetal bovine serum supplemented minimal Eagle's medium (MEM). The day before transfection, 5×10^4 cells/well were seeded in 24-well plates (Greiner Labortechnik GmbH, Germany). The supplemented MEM was changed to MEM one hour prior to transfection.
The pMASIA.Luc plasmid DNA was used at a concentration of 0.2 μg/well for transfection. The transfection mixtures were prepared as follows: 0.2 μg of plasmid DNA was mixed with aliquots of gemini surfactant solution to obtain a plasmid DNA:gemini surfactant charge ratio of 1:10 and incubated at room temperature for 15 minutes. To this mixture, 25 μL of DOPE liposomes were added. The transfection mixtures were incubated for 30 minutes at room temperature prior to transfection and added to the cells, dropwise. The plates were incubated for 5 hours at 37° C. in a CO2 incubator. Dc-Chol (30-[N—(N′,N′-Dimethylaminoethane)-carbamoyl]cholesterol) was used for comparison and, as a positive control, cells were also transfected with Lipofectamine Plus™ Reagent (Invitrogen Life Technologies, Carlsbad, Calif.), according to the manufacturer's protocol, with 0.2 μg of plasmid DNA per well.
Luciferase production was quantified using the Promega Steady-Glo™ luciferase assay system. Luminescence was monitored using a Turner Biosystems (Sunnyvale, Calif., USA) Reporter microplate luminometer. Statistical analysis was performed using ANOVA and Tukey's multiple comparison test. […] Equal variances were tested using Bartlett's test, and normality by the D'Agostino & Pearson omnibus normality test.

[6] = Size (hydrodynamic radius) and zeta potential as a function of pH; type: physicochemical; details: PGL complexes
Experimental: Determinations of size (hydrodynamic radius, RH) and zeta potential (ζ) as a function of pH were carried out using a Malvern Instruments (Worcestershire, UK) ZetaSizer NanoZs with MPT-2 auto-titrator attachment. 10 mL of the desired sample was placed in the titration cell of the auto-titrator and samples were titrated (in 0.2-0.5 pH unit increments) with 0.1 M NaOH and 0.1 M HCl over the desired pH range. Size and zeta potential measurement were made in triplicate at each pH point, and the reported values represent the average±standard error. pH titrations of aqueous gemini surfactant solutions were made at a surfactant concentration of 2.00 mM, above the critical micelle concentration in all cases.
(§1) Solutions for size, zeta potential, and circular dichrosicm (CD) measurements were prepared, in larger volumes, as described above for the transfection experiments using a pGTmCMV.IFN-GFP plasmid DNA, previously constructed in our lab. Solutions containing only surfactant and plasmid DNA were prepared by addition of an aliquot of stock plasmid DNA to the gemini surfactant solution to a charge ratio of 1:10 (DNA:surfactant).

[7] = from reference [24]; cited from earlier work
plasmid DNA = assay: Circular dichroism of plasmid DNA-gemini surfactant complexes; type: physicochemical; details: with or without DOPE
Experimental: CD spectra were obtained by using an Applied Photo Physics π*180 instrument (Leatherhead, UK) with a 4 nm slit, at room temperature.
as §1

phase / morphology of lipid bilayers from scattering pattern (in words) [1] | membrane charge density σM [4] | d-spacing of main scattering peak [1] [Å] | pH of transition in particle size and zeta potential [6] | DNA distortion from CD spectrum (in words) (plasmid DNA) | SMILES | cell viability / toxicity (in words) (cultured cells) | transfection efficiency (in words) [2] | transfection efficiency within the 12-s-12 series, s=3-8 (in words) [3] | cell viability (cultured cells; after transfection with plasmid DNA-gemini surfactant-DOPE or Lipofectamine Plus, relative to controls (no treatment or plasmid DNA alone)) | increase in transfection compared to the corresponding aza-substituted compound [5] [fold] | transfection efficiency (in words) ([5]; PGL complexes, with DOPE added) | transfection efficiency ([5]; PGL system (plasmid DNA-gemini surfactant-DOPE), charge ratio 1:10) | increase in transfection compared to an un-substituted gemini surfactant ([5]; p<0.01) [fold] | Head group area a0 [7] [nm^2/molecule]
predominantly hexagonal morphology |  |  |  |  | CCCCCCCCCCCC[N+](C)(C)CCC[N+](C)(C)CCCCCCCCCCCC.[Br-].[Br-] [12-3-12, reference compound] | not statistically different from the control | low transfection efficiency | best transfection efficiency; also recorded: most efficient transfection agent |  |  |  |  |  | 
 | 0.920 ×10^−2 e/Å^2 | 59.4 | 5.5 | greatest DNA distortion | CCCCCCCCCCCC[N+](C)(C)CCCNCCC[N+](C)(C)CCCCCCCCCCCC.[Br-].[Br-] [12-7NH-12, 1,9-bis(dodecyl)-1,1,9,9-tetramethyl-5-imino-1,9-nonanediammonium dibromide] | not statistically significantly different from that of the 12-5N-12 and 12-8N-12 | significantly higher level of transfection efficiency |  | about 70% | 3 | enhanced transfection efficiency compared to the un-substituted surfactant, 12-3-12; also recorded: higher levels of transfection efficiency compared to the non-substituted gemini surfactant 12-3-12; also recorded: comparable to that of Lipofectamine Plus | 6.7±0.5 ng luciferase/2×10^4 cells | 9 | 1.56 ± 0.04
